Measured values reported in patent publication EP4274570B1, “ACTIVATORS OF THE BMP/SMAD AXIS FOR USE IN TREATING AND/OR PREVENTING MUSCLE ATROPHY” (Università Degli Studi Di Torino, priority 2021, dated 2022).

How the values were obtained:
[1] = system: C2C12 myotubes; assay: Measurement of C2C12 myotube diameters; assay type: cell-based, murine; settings: for C26 CM-induced atrophy (myotube diameter): 10% C26 conditioned medium, FK506 1µg/mL or siFKBP12 transfection; for hypertrophy (myotube diameter): BMP6 1ng/mL as positive control
Description: When the confluence of 80-90% is reached, they are differentiated into myotubes in DMEM/2% HS medium for 4 days.
For the signaling experiments, two hours prior to treatment, the DMEM differentiation medium without serum was changed, followed by 1h of treatment with FK506 (1 µg/mL) or BMP6 (30ng/mL).
The myotubes were analyzed 48h after transfection to establish the diameters and lysates for RNA extraction.
Photographs of the myotubes were taken using 20X magnification bright field microscopy (Zeiss) and their diameter was measured using FIJI software.

[2] = system: tibialis anterior; settings: mice treated for 9 days; cited from earlier work
[3] = system: SMAD1/5; assay: Western blot of SMAD1/5 phosphorylation in C2C12 myotubes; assay type: cell-based, murine; settings: FK506 1µg/mL
Description: (§1) The myotubes were treated with 10% C26 conditioned medium (C26 CM (9)) or Activin A (1ng/mL R&D # 338-AC), FK506 (1µg/mL Cayman Chemical, #10007965), BMP6 (1ng/mL R&D Systems, 6325-BM), cyclosporine A (1µM Tocris Biosciences #1101), DMH1 (5µM CAS No 1206711-16-1) or with DMEM/2%HS (CTR) differentiation medium for 24h to measure their diameter. For the signaling experiments, two hours prior to treatment, the DMEM differentiation medium without serum was changed, followed by 1h of treatment with FK506 (1 µg/mL) or BMP6 (30ng/mL). The protein ubiquitination flow was measured by treating in C2C12 myotubes with FK506 1µg/mL, Activin A 1ng/mL (ACTA), and the combination of the two, with and without MG132 proteasome inhibitor (Senta Cruz Biotechnology, SC-351846), 1µM for 1h.
(§2) C2C12 myotubes were lysed in RIPA lysis buffer (150mM NaCl, 50mM Tris-HCl, 0.5% sodium deoxycholate, 1.0% Triton X-100, 0.1% SDS, and 1mM EDTA) with protease and phosphatase inhibitors (Roche, #0490837001, #11697498001). The protein concentration was determined using the BCA assay (Thermo Fisher Scientific). 15µg of proteins from cell lysates were loaded for performing SDS-PAGE, then transferred onto PVDF membrane for immunoblotting analysis. The primary antibodies used are: SMAD1 (Cell Signaling, #9743), P-SMAD1/5 (Cell Signaling, #13820T), vinculin (Cell Signaling #4650), ubiquitin (Abcam, #7780).

[4] = system: pGL3-BMP responsive element (BRE)-Luc; assay: Luciferase assay with pGL3-BMP responsive element (BRE)-Luc reporter in C2C12 myoblasts; assay type: cell-based, murine; settings: FK506 1µg/mL, 5h, compared with BMP6 1ng/mL
Description: C2C12 myoblasts were transfected with the pGL3-BMP responsive element (BRE)-Luc plasmid (Addgene #45126) to measure the promoter activation by the SMAD1/5/8 proteins. The cells were treated with FK506 (1µg/mL) or BMP6 (1ng/mL) 15h posttransfection. The luminescence was measured using Dual-Luciferase Reporter Assay System (Promega) after 5h of treatment according to the manufacturer's instructions.

[5] = system: C2C12 myotubes; assay: Protein ubiquitination flow after proteasome inhibition (MG132) in C2C12 myotubes; assay type: cell-based, murine; settings: FK506 1µg/mL plus Activin A 1ng/mL, with and without MG132 1µM, 1h
Description: as §1, §2

[6] = system: Colon-26 (C26) murine tumor cachexia model; assay: Colon-26 (C26) tumor cachexia model, oral treatment; assay type: in vivo; settings: C26 mice, FK506 0.02 mg/Kg daily oral
Description: (§3) FK506 (Cayman Chemical, #10007965) was dissolved in DMSO (5mg/mL) and then diluted in a 5% glucose and water solution for oral administration in order to reach the final concentration of 0.02mg/kg. All the mice were subjected to one day of treatment, prior to inoculation of colon-26 (C26) adenocarcinoma cells into the right flank of three-month-old Balb C females (Charles River #028) (0.7x10^6 cells/mouse). All the mice were treated daily with FK506 (0.02 mg/Kg) or 5% glucose buffer DMSO vehicle.
Maximum muscle strength was measured on the day of inoculation (day 0) and the day of sacrifice (day 11) using the Grip Strength Test (Bioseb).
(§4) The gastrocnemii, tumors, and subcutaneous and inguinal adipose tissue were isolated, weighed, and normalized for the tibia length of each mouse.
The fresh gastrocnemii were frozen in liquid nitrogen-cooled isopentane and stored at -80°C. 7µm cross-sections were performed using a cryostat. Immunofluorescence was performed by securing the tissues in 4% PFA, blocking with […] in PBS before incubating with the primary antibody for laminin (sc-59854), and with the secondaries (ALEXA488) and DAPI (Abcam 228549). The photographs were taken with a fluorescence microscope to evaluate the cross-sectional area of the fibers.
The total RNA from the frozen tissues was extracted with TRIzol reagent (Invitrogen) following the manufacturer's instructions. 0.5-1µg of total RNA were retrotranscribed using High Capacity cDNA Reverse Transcriptase kit (Applied Biosystems). The cDNA was analyzed with Real Time Quantitative PCR (ABI PRISM 7900HT FAST Real-Time PCR system, Applied Biosystems) using Luna Universal Probe qPCR master mix (Nebb) and Universal Probe Library system (Roche Applied Science). The relative mRNA levels were calculated using the 2-ΔΔCT method and normalizing for the GAPDH levels. The following primers were used: Atrogin1 F: 5'-[…]-3' (SEQ ID No. 1), R: 5' […]-3' (SEQ ID No. 2); Murf1 F: 5'[…]-3' (SEQ ID No. 3), R: 5'-tcgtcttcgtgttccttgc-3' (SEQ ID No. 4); Musa1 F: 5'-gagaagccagggtttgagc-3' (SEQ ID No. 5), R: 5'-[…]-3' (SEQ ID No. 6); Cathepsin L F: 5'-[…]-3' (SEQ ID No. 7), R: 5'-[…]-3' (SEQ ID No. 8); FKBP12 F: 5'-atgggagtgcaggtggag-3' (SEQ ID No. 9), R: 5'-[…]-3' (SEQ ID No. 10). GAPDH F: 5'-[…]-3' (SEQ ID No. 11), R: 5'-[…]-3' (SEQ ID No. 12).

[7] = system: immune populations; assay: FACS of immune populations in blood, spleens and tumors of C26 mice; assay type: in vivo; settings: FK506 0.02 mg/Kg daily oral
Description: The blood was extracted and incubated with erythrocyte lysis buffer for 10 minutes at room temperature. After washing with PBS, the cells were collected, incubated with Fc-receptor blocker (anti-CD16/CD32 antibody, BD Bioscience #101302) and stained for 30 minutes at 4°C with the antibodies.
The primary tumors were extracted, crushed, and digested with collagenase IV (1mg/mL) (Sigma Aldrich #C4-28) in RPMI-1640 at 37°C for 1h. After washing the tissues with RPMI-1640/10% FBS, the suspension was passed through a 70-µm pore filter, centrifuged at 1400rpm for 10 minutes and incubated with the erythrocyte lysis buffer (155 mM NH4Cl, 15.8 mM Na2CO3, 1 mM EDTA, pH 7.3) for 10 minutes at room temperature. After washing with RPMI-1640/10% FBS, 1 million cells were resuspended in PBS, treated with Fc-receptor blocker (anti-CD16/CD32 antibody, BD Bioscience #101302) and stained for 30 minutes at 4°C with the antibodies.

[8] = system: Balb C mice; assay: Hypertrophy experiment in Balb C mice without tumor, oral treatment; assay type: in vivo
Description: as §3, §4
4-month-old Balb C females were treated orally every day for 4 weeks (5 days per week), with 0.02mg/Kg/day FK506 in 5% glucose solution or with vehicle (CTR). The maximum strength was measured weekly with the Grip Strength Test.

[9] = system: post-transplant diabetes mellitus rats; settings: 1 mg/kg/d; cited from earlier work
[10] = system: BMP-SMAD1/5/8 signaling pathway; settings: hepatocytes; cited from earlier work

## CC(C)Oc1ccc(-c2cnc3c(-c4ccnc5ccccc45)cnn3c2)cc1 [DMH1]
[1]; DMH1 5µM, FK506 1µg/mL, 10% C26 CM, 24h
  effect of DMH1 on tacrolimus-induced hypertrophy and protection from C26 CM-induced atrophy (myotube diameter): nullifies both the hypertrophic effect of tacrolimus and the protection of C26 (C26 CM) tumor medium-induced atrophy

## c1ccc2c(-c3cnn4cc(-c5ccc(N6CCNCC6)cc5)cnc34)ccnc2c1 [LDN-193189]
[2]
  atrophy in the myofibers of the tibialis anterior: 21%
  baseline phosphorylation levels of Smad1/5/8: reduction in baseline phosphorylation levels of Smad1/5/8

## C=CC[C@@H]1/C=C(\C)C[C@H](C)C[C@H](OC)[C@H]2O[C@@](O)(C(=O)C(=O)N3CCCC[C@H]3C(=O)O[C@H](/C(C)=C/[C@@H]3CC[C@@H](O)[C@H](OC)C3)[C@H](C)[C@@H](O)CC1=O)[C@H](C)C[C@@H]2OC [tacrolimus]
[1]; 24h, listed as FK506
  C26 CM-induced atrophy (myotube diameter): capable of preventing C26 CM-induced atrophy
[1]; 24h, listed as Tacrolimus
  C26 CM-induced atrophy (myotube diameter): capable of preventing
[1]; FK506 1µg/mL, 24h, listed as FK506
  hypertrophy (myotube diameter): capable of inducing significant hypertrophy
[1]; FK506 1µg/mL, 24h, listed as Tacrolimus
  hypertrophy (myotube diameter): induces levels of hypertrophy comparable to BMP6
[1]; FK506 1µg/mL, Activin A 1ng/mL, 24h
  ACTA-induced atrophy (myotube diameter): capable of preventing
[1]; siALK2-transfected C2C12 myotubes, FK506 1µg/mL
  effect of tacrolimus on myotube diameter under ALK2 silencing: nullifies the effect of tacrolimus
[3]; 1h, without stimulation by any extracellular ligand
  phosphorylation levels of SMAD1/5: capable of increasing the phosphorylation levels of SMAD1/5
[3]; siALK2-transfected C2C12 myotubes
  effect of tacrolimus on phosphorylation of the Smad1/5/8 proteins under ALK2 silencing: nullifies the effect of tacrolimus
[4]
  BRE-Luc reporter activation: capable of exceeding the BMP6 positive control in reporter activation
[5]
  ACTA-induced increase in protein ubiquitination: completely reversed
[6]; 11 days
  body weight loss: capable of preventing
  fat loss (subcutaneous and inguinal adipose tissue): capable of preventing
[6]; at sacrifice
  weight of the tumor: without altering the weight of the tumor
[6]; end of the experiment (day 11)
  maximum muscle strength (Grip Strength test): increased maximum muscle strength
[6]; normalized for GAPDH
  expression of atrogens (Atrogin 1, MuRF-1, Musa1, Cathepsin L mRNA) in the gastrocnemii: reduced expression of all the atrogens
[6]; gastrocnemius cross-section
  muscle atrophy in terms of muscle fiber diameter: capable of preventing muscle atrophy
[6]; gastrocnemius weight normalized for tibia length
  muscle atrophy in terms of skeletal muscle weight: capable of preventing muscle atrophy
[7]
  amount and state of activation of the main immune populations: has no effect on these parameters
[8]; 0.02mg/Kg/day oral, 4 weeks, day 29, versus vehicle (CTR)
  maximum muscle strength (Grip Strength test): significantly increases maximum muscle strength
[8]; oral non-immunosuppressive doses, 11 days
  muscle mass: capable of increasing the mass of the quadriceps
[9]
  muscle atrophy at high immunosuppressive doses: induces muscle atrophy
[10]
  phosphorylation of SMAD 1/5/8 proteins: increasing the phosphorylation of SMAD 1/5/8 proteins
  transcription of their epcidin target: increasing
